Assay results reported in US8629173B2, “Solid forms comprising (+)-2-[1-(3-ethoxy-4-methoxyphenyl)-2-methylsulfonylethyl]-4-acetylaminoisoindoline-1,3-dione, compositions thereof, and uses thereof” (Celgene Corporation, priority 2002, dated 2014).

Legend:
[1] = tested on: IL-1β-induced TNF-α production from human PBMC; assay: IL-1β-induced TNF-α production from human PBMC; type: cell-based; details: 18 h, read-out: IL-β-induced TNF-α IC50
Description: During the course of inflammatory diseases, TNF-α production is often stimulated by the cytokine IL-1β, rather than by bacterially derived LPS. Compounds were tested for the ability to inhibit IL-1β-induced TNF-α production from human PBMC as described above for LPS-induced TNF-α production, except that the PBMC were isolated from source leukocyte units (Sera-Tec Biologicals, North Brunswick, N.J., USA) by centrifugation on Ficoll-Paque Plus (Amersham Pharmacia, Piscataway, N.J., USA), plated in 96-well tissue culture plates at 3×10^5 cells/well in RPMI-1640 medium (BioWhittaker, Walkersville, Md., USA) containing 10% heat-inactivated fetal bovine serum (Hyclone), 2 mM L-glutamine, 100 U/ml penicillin, and […] (complete medium), pretreated with compounds at 10, 2, 0.4, 0.08, 0.016, 0.0032, 0.00064, and 0 μM in duplicate at a final DMSO concentration of 0.1% at 37° C. in a humidified incubator at 5% CO2 for one hour, then stimulated with 50 ng/ml recombinant human IL-1β (Endogen) for 18 hours.

human PDE2 = human PDE2 (Homo sapiens, UniProt O00408); assay: PDE2 enzyme assay; type: biochemical
LPS-induced serum TNF-α = assay: Mouse LPS-induced serum TNF-α inhibition; type: in vivo; details: po
Description: Compounds were tested in this animal model according to previously described methods (Corral et al., 1996, Mol. Med., 2:506-515). Mouse LPS-induced serum TNF-α inhibition (ED50, mg/kg, p.o.)=0.05 for Compound A.

Sequence of human PDE2 (O00408 whole entry): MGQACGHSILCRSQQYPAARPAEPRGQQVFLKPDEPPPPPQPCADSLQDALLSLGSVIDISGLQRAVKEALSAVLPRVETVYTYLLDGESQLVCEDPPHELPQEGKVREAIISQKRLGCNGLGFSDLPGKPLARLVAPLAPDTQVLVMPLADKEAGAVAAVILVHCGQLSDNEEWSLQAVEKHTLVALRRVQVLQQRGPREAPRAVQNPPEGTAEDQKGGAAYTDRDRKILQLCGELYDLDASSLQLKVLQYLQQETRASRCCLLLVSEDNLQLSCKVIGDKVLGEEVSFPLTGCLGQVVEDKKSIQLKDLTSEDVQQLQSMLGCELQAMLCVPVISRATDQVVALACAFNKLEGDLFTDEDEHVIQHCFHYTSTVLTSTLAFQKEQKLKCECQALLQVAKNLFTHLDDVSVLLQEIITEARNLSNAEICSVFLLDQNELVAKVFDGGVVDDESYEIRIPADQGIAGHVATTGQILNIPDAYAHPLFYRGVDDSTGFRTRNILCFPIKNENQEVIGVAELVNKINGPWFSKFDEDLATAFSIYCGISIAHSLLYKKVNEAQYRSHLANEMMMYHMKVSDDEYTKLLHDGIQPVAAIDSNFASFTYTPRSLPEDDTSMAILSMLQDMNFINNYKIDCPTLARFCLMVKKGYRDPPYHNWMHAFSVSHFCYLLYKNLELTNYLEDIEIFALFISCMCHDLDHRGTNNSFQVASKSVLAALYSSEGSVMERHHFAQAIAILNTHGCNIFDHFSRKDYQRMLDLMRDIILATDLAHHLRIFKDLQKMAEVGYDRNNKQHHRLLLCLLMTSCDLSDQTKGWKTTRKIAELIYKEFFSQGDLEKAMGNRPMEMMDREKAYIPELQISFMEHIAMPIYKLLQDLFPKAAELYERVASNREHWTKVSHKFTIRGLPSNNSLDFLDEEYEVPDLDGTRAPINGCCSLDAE

CCOc1cc(C(CS(C)(=O)=O)N2C(=O)c3cccc(NC(C)=O)c3C2=O)ccc1OC (single isomer, unassigned; (+)) [Compound A, (+)-2-[1-(3-ethoxy-4-methoxyphenyl)-2-methylsulfonylethyl]-4-acetylaminoisoindoline-1,3-dione]
IC50 [1]: 83 nM
PDE Specificity Ratio PDE4/PDE2 (human PDE2; from Table 1 data): >10000 fold
inhibition at 10 µM (human PDE2; read-out: PDE2 (% inhib at 10 μM)): 6%
ED50 (LPS-induced serum TNF-α): 0.05 mg/kg
